# Patent US20260256792A1, “TREATMENT OF CHRONIC SPONTANEOUS URTICARIA BY ADMINISTERING (R)-2-[3-[4-AMINO-3-(2-FLUORO-4-PHENOXY-PHENYL)PYRAZOLO[3,4-D]PYRIMIDIN-1-YL]PIPERIDINE-1-CARBONYL]-4-METHYL-4-[4-(OXETAN-3-YL)PIPERAZIN-1-YL]PENT-2-ENENITRILE” (priority 2023, published 2026)
# Test system: moderate-to-severe chronic spontaneous urticaria (CSU)
# Experiment: Phase 2 CSU study: hives severity score over 7 days (HSS7)
# Format: in vivo, human
# Design: key to HSS7 Change from baseline, Median / HSS7, Median / HSS7, Max / HSS7 Change from baseline, Q1 / HSS7 Change from baseline, Q3 / HSS7 Change from baseline, Max: 7-day sum of daily hive scores, each 0 = none to 3 = >50 hives
# From the text: The study comprises a 12 week, randomized, double-blind, placebo-controlled, multi-center, dose-ranging efficacy and safety phase, followed by a 40 week open label extension (OLE) phase (see FIG. 1).
# The study consists of three phases and an optional OLE phase.
# The UAS is a validated PRO measure. The daily UAS is the sum of the daily Hive Severity Score (HSS, ranging from 0=None to 3=more than 50 hives) and the daily Itch Severity Score (ISS, ranging from 0=None to 3=intense), the 2 key urticaria signs and symptoms which are wheals and itch. The daily UAS scores range from 0 to 6 point/day. Daily UAS scores are summed over 7-day period to create the UAS7, ranging from 0 to 42, and are composed of the HSS7 and ISS7 components. […] Patients were to complete the UAS using the e-diary. The e-diary was to be used once daily on the same time of each day recording of participant's answers to the urticaria activity score over 7 days (UAS7) questionnaire. For participants who entered the OLE phase, their answers to the UAS7 questionnaire were also to be collected from Week 20 to Week24 and from Week 48 to Week 52.
# The following secondary endpoints were to be analyzed using the same approach as for the primary endpoint: • Change from baseline in UAS7 at Week 4 • Change from baseline in UAS7 at Week 12 (for US and US reference countries) • Change from baseline in ISS7 at Week 12 (except US and US reference countries) • Change from baseline in HSS7 at Week 12
# [1] = Week 7, 400 mg BID, Omalizumab-Naïve Population
# [2] = Week 7, 400 mg BID, Patients with Prior Omalizumab Use
# [3] = Week 7, 400 mg QPM, Omalizumab-Naïve Population
# [4] = Week 7, 400 mg QPM, Patients with Prior Omalizumab Use
# [5] = Week 7, 400 mg TID, Omalizumab-Naïve Population
# [6] = Week 7, 400 mg TID, Patients with Prior Omalizumab Use
# [7] = Week 8, 400 mg BID, Omalizumab-Naïve Population
# [8] = Week 8, 400 mg BID, Patients with Prior Omalizumab Use
# [9] = Week 8, 400 mg QPM, Omalizumab-Naïve Population
# [10] = Week 8, 400 mg QPM, Patients with Prior Omalizumab Use
# [11] = Week 8, 400 mg TID, Omalizumab-Naïve Population
# [12] = Week 8, 400 mg TID, Patients with Prior Omalizumab Use
# [13] = Week 9, 400 mg BID, Omalizumab-Naïve Population
# [14] = Week 9, 400 mg BID, Patients with Prior Omalizumab Use
# [15] = Week 9, 400 mg QPM, Omalizumab-Naïve Population
# [16] = Week 9, 400 mg QPM, Patients with Prior Omalizumab Use
# [17] = Week 9, 400 mg TID, Omalizumab-Naïve Population
# [18] = Week 9, 400 mg TID, Patients with Prior Omalizumab Use
smiles,measurement,setting,value
"CC(C)(C=C(C#N)C(=O)N1CCC[C@@H](n2nc(-c3ccc(Oc4ccccc4)cc3F)c3c(N)ncnc32)C1)N1CCN(C2COC2)CC1 [rilzabrutinib, (R)-2-[3-[4-amino-3-(2-fluoro-4-phenoxy-phenyl)pyrazolo[3,4-d]pyrimidin-1-yl]piperidine-1-carbonyl]-4-methyl-4-[4-(oxetan-3-yl)piperazin-1-yl]pent-2-enenitrile]","HSS7, Mean (SD)",[1],7.34 (6.12)
same,"HSS7, Median",[1],7.00
same,"HSS7 Change from baseline, Mean (SD)",[1],−6.75 (5.85)
same,"HSS7 Change from baseline, Median",[1],−7.00
same,"HSS7 Percent change from baseline, Mean (SD)",[1],−48.07 (38.31) %
same,"HSS7 Percent change from baseline, Median",[1],−50.00%
same,"HSS7, Mean (SD)",[2],4.80 (7.46)
same,"HSS7, Median",[2],0.00
same,"HSS7 Change from baseline, Mean (SD)",[2],−10.00 (9.67)
same,"HSS7 Change from baseline, Median",[2],−12.00
same,"HSS7 Percent change from baseline, Median",[2],−100.00%
same,"HSS7, Mean (SD)",[3],10.43 (5.27)
same,"HSS7, Median",[3],8.40
same,"HSS7 Change from baseline, Mean (SD)",[3],−4.82 (5.35)
same,"HSS7 Change from baseline, Median",[3],−4.00
same,"HSS7 Percent change from baseline, Mean (SD)",[3],−29.76 (31.10) %
same,"HSS7 Percent change from baseline, Median",[3],−35.71%
same,"HSS7, Mean (SD)",[4],9.00 (NC)
same,"HSS7, Median",[4],9.00
same,"HSS7 Change from baseline, Mean (SD)",[4],−11.00 (NC)
same,"HSS7 Change from baseline, Median",[4],−11.00
same,"HSS7 Percent change from baseline, Mean (SD)",[4],−55.00 (NC) %
same,"HSS7 Percent change from baseline, Median",[4],−55.00%
same,"HSS7, Mean (SD)",[5],6.40 (4.54)
same,"HSS7, Median",[5],5.92
same,"HSS7 Change from baseline, Mean (SD)",[5],−7.60 (5.60)
same,"HSS7 Change from baseline, Median",[5],−6.58
same,"HSS7 Percent change from baseline, Mean (SD)",[5],−52.36 (32.23) %
same,"HSS7 Percent change from baseline, Median",[5],−50.69%
same,"HSS7, Mean (SD)",[6],5.11 (4.08)
same,"HSS7, Median",[6],4.33
same,"HSS7 Change from baseline, Mean (SD)",[6],−10.92 (7.20)
same,"HSS7 Change from baseline, Median",[6],−9.50
same,"HSS7 Percent change from baseline, Mean (SD)",[6],−63.38 (24.01) %
same,"HSS7 Percent change from baseline, Median",[6],−54.41%
same,"HSS7, Mean (SD)",[7],6.66 (6.70)
same,"HSS7, Median",[7],5.00
same,"HSS7 Change from baseline, Mean (SD)",[7],−7.49 (6.10)
same,"HSS7 Change from baseline, Median",[7],−7.00
same,"HSS7 Percent change from baseline, Mean (SD)",[7],−54.71 (40.69) %
same,"HSS7 Percent change from baseline, Median",[7],−74.07%
same,"HSS7, Mean (SD)",[8],4.80 (7.46)
same,"HSS7, Median",[8],0.00
same,"HSS7 Change from baseline, Mean (SD)",[8],−10.00 (9.67)
same,"HSS7 Change from baseline, Median",[8],−12.00
same,"HSS7 Percent change from baseline, Median",[8],−100.00%
same,"HSS7, Median",[9],9.00
same,"HSS7 Change from baseline, Mean (SD)",[9],−4.56 (5.35)
same,"HSS7 Change from baseline, Median",[9],−4.00
same,"HSS7 Percent change from baseline, Mean (SD)",[9],−29.79 (35.34) %
same,"HSS7 Percent change from baseline, Median",[9],−28.57%
same,"HSS7, Mean (SD)",[10],9.00 (NC)
same,"HSS7, Median",[10],9.00
same,"HSS7 Change from baseline, Mean (SD)",[10],−11.00 (NC)
same,"HSS7 Change from baseline, Median",[10],−11.00
same,"HSS7 Percent change from baseline, Mean (SD)",[10],−55.00 (NC) %
same,"HSS7 Percent change from baseline, Median",[10],−55.00%
same,"HSS7, Mean (SD)",[11],6.12 (4.80)
same,"HSS7, Median",[11],6.00
same,"HSS7 Change from baseline, Mean (SD)",[11],−7.88 (5.18)
same,"HSS7 Change from baseline, Median",[11],−7.50
same,"HSS7 Percent change from baseline, Mean (SD)",[11],−56.04 (32.39) %
same,"HSS7 Percent change from baseline, Median",[11],−56.35%
same,"HSS7, Mean (SD)",[12],3.17 (4.45)
same,"HSS7, Median",[12],1.50
same,"HSS7 Change from baseline, Mean (SD)",[12],−12.86 (6.28)
same,"HSS7 Percent change from baseline, Mean (SD)",[12],−80.91 (20.45) %
same,"HSS7 Percent change from baseline, Median",[12],−86.73%
same,"HSS7, Mean (SD)",[13],7.01 (7.58)
same,"HSS7, Median",[13],3.50
same,"HSS7 Change from baseline, Mean (SD)",[13],−6.95 (6.00)
same,"HSS7 Change from baseline, Median",[13],7.00
same,"HSS7 Percent change from baseline, Mean (SD)",[13],−53.79 (43.28) %
same,"HSS7 Percent change from baseline, Median",[13],−68.18%
same,"HSS7, Mean (SD)",[14],4.80 (7.46)
same,"HSS7, Median",[14],0.00
same,"HSS7 Change from baseline, Mean (SD)",[14],−10.00 (9.67)
same,"HSS7 Change from baseline, Median",[14],−12.00
same,"HSS7 Percent change from baseline, Median",[14],−100.00%
same,"HSS7, Mean (SD)",[15],9.82 (5.59)
same,"HSS7, Median",[15],9.20
same,"HSS7 Change from baseline, Mean (SD)",[15],−5.33 (5.35)
same,"HSS7 Change from baseline, Median",[15],4.92
same,"HSS7 Percent change from baseline, Mean (SD)",[15],−34.46 (32.68) %
same,"HSS7 Percent change from baseline, Median",[15],−33.59%
same,"HSS7, Mean (SD)",[16],8.00 (NC)
same,"HSS7, Median",[16],8.00
same,"HSS7 Change from baseline, Mean (SD)",[16],−12.00 (NC)
same,"HSS7 Change from baseline, Median",[16],−12.00
same,"HSS7 Percent change from baseline, Mean (SD)",[16],−60.00 (NC) %
same,"HSS7 Percent change from baseline, Median",[16],−60.00%
same,"HSS7, Mean (SD)",[17],5.88 (4.98)
same,"HSS7, Median",[17],6.00
same,"HSS7 Change from baseline, Mean (SD)",[17],−8.19 (5.87)
same,"HSS7 Change from baseline, Median",[17],−8.00
same,"HSS7 Percent change from baseline, Mean (SD)",[17],−55.85 (38.63) %
same,"HSS7 Percent change from baseline, Median",[17],−57.14%
same,"HSS7, Mean (SD)",[18],3.25 (4.37)
same,"HSS7, Median",[18],2.00
same,"HSS7 Change from baseline, Mean (SD)",[18],−12.78 (6.34)
same,"HSS7 Change from baseline, Median",[18],−12.00
same,"HSS7 Percent change from baseline, Mean (SD)",[18],−80.12 (19.92) %
same,"HSS7 Percent change from baseline, Median",[18],−86.97%
same,"HSS7, Mean (SD)","Week 10, 400 mg BID, Omalizumab-Naïve Population",7.05 (7.27)
